Assay results published in patent US12042478B2, “(R)-2-[(2H-1,3-benzodioxol-5-yl)methyl]pyrrolidine and processes for preparation, compositions and uses thereof” (Pharmala Biotech Inc., priority 2022, dated 2024).

Assays:
[1] = biological target: DAT (Homo sapiens, UniProt Q01959); test: QSAR model predicted IC50, DAT; conditions: ratio = 1/DAT IC50:1/SERT IC50, from predicted IC50
Procedure: In silico studies (QSAR and docking) are useful tools to understand drug mechanisms, and they are relatively cheaper and faster than experiments. A QSAR model was created for each monoamine transporter. Additionally, the docking properties of phenethylamines were investigated.
QSAR: DAT, SERT and NET IC50 values were collected from the literature for 73 phenethylamines. Three different software's were used for descriptor calculations, and almost 2000 descriptors were calculated. Highly correlated descriptors were eliminated before multi-linear regression (MLR) analysis. All descriptors were merged with experimental inhibition values in QSARiNS software. The multi-Criteria Decision-Making tool of QSARiNS was used to pick the best model.
The predicted IC^50 (mM) values of the test molecules generated based on the QSAR developed as described above are presented in Table 4.

[2] = test system: C57 and BTBR mice; test: Radiotelemetry of core temperature; assay type: in vivo, mouse; conditions: for core body temperature change: 5.6 mg/kg IP; for effect on core temperature: 10 mg/kg; for core temperature response, comparison of strains: C57 vs BTBR mice
Procedure: (§1) The radiotelemetry assay was conducted in adult male C57 and BTBR mice (n=6 per group) in a dedicated testing room where ambient light, sound, and human contact were tightly controlled.
(§2) Prior to surgical implantation of radiotelemetry probes, mice received 3 mg/kg meloxicam (IP), and anesthesia was induced with 4% inhaled isoflurane and maintained with 1-3% isoflurane (as needed) throughout the procedure at a flow rate of 1.5 litres/minute. The abdominal area of each animal was treated with depilatory cream, then sanitized with 3 alternating scrubs with iodine and alcohol. A rostral-caudal cut approximately 1.5 cm in length was made with sterile skin scissors, providing access to the intraperitoneal cavity. A cylindrical glass-encapsulated radiotelemetry probe (model ER-4000 E-Mitter, Mini Mitter, Bend, OR, USA) was then inserted. These probes measure 15.5 mm×6.5 mm and weigh approximately 1 gram. Incisions were closed (skin layer and muscle layer separately) using reverse cutting 5-0 Vicryl absorbable sutures for the muscle layer and 5-0 nylon suture material for the skin layer. Surgeries were carried out at least 7 days before initiation of experimental conditions, allowing time for incisions to heal and for animals to recover normal body weights. Following surgery, all implanted mice were individually housed in Plexiglas cages within the telemetry room for the duration of all experiments. Implanted transmitters produce activity- and temperature-modulated signals which are sent to a receiver (model ER-4000 Receiver, Mini Mitter Co., Inc.) underneath each cage. Following use, telemetry probes were removed from carcasses, wiped with alcohol swabs, and stored in the disinfectant solution until re-use.
At least 7 days after surgical implantation of radiotelemetry probes, mice in their individual home cages were placed atop a telemetry energizer/receiver, which powers probes and transmits their data to an interfaced computer. Upon initiation of an experimental session, the computer collects two data updates from the probes at 5 min intervals: core temperature (in ° C.) on one channel, and locomotor counts (in arbitrary units, depending on the relative position of the probe atop the receiver) on the other. After at least 60 minutes of baseline data collection, mice were removed from their cages, injected with saline or a given dose of a specific drug, then returned to the home cage 24 hours of data collection.
Food and water were always freely available in the home cage. Mice were injected with ascending doses of a given drug, with at least 48 hours separating doses. Because there are few studies of drug effects in BTBR mice, the first drug dose tested occasionally elicited unexpectedly large locomotor effects in these animals. In these cases, smaller drug doses were tested next, after a washout period of at least one full day.

[3] = test system: C57 and BTBR mice; test: Social preference procedure: sociability test; assay type: in vivo, mouse; conditions: 1 mg/kg IP
Procedure: All drugs were dissolved in physiological 0.9% saline and administered at a constant volume of 1 ml/100 g body weight. Because all drugs utilized in these studies were synthesized as hydrochloride (HCl) salts, they were weighed as salts prior to the preparation of all solutions. All drugs at all concentrations are readily dissolved in an aqueous solution at normal pH. Injections of all drugs were administered intraperitoneally (IP) to mimic pharmacokinetic parameters typical of oral administration, without the behaviour-impairing effects of gavage stress.
This assay was conducted in adult male C57 and BTBR mice (n=6 per group) in a dedicated conditioning room where ambient light, sound, and human contact were tightly controlled.
Social preference chambers consisted of two polycarbonate boxes (13.5 cm wide×22.5 cm tall×31.0 cm deep), floored with rough-textured black ABS plastic, and connected to one another by a 1.25″ PVC T-junction. An infrared photobeam emitter/detector array was mounted at each intersection of the T-junction and each preference compartment, and as a mouse traversed the apparatus, it would break the photobeam upon entry to or exit from each preference compartment. Beam breaks started or stopped a counter on an interfaced computer, allowing automated collection of time spent in each compartment. At the end of each test, data were reported as time (in seconds) spent in each compartment, the number of entries into each compartment, and the average time spent in each compartment following an entry. Social preference tests were conducted in an iterative manner, with each test subject completing four distinct phases as described below. Between testing sessions, chambers were sanitized by wiping the insides with a disinfectant product provided by the UAMS Department of Laboratory Animal Medicine. At the end of the week (upon completion of all phases of the procedure), each apparatus was disassembled and all parts were sanitized. No food or water were available during social preference sessions, but were available in the home cage immediately afterwards.
A single sociability session occurred the day after the novelty preference test, where one compartment contained a wire mesh cup with a dummy mouse inside while the other compartment contained a male NIH Swiss stranger mouse inside the previously empty cup (see FIG. 4). […] The position of the dummy mouse (left or right compartment) remained the same for each subject as during the novelty test the day before, thereby counterbalancing the position of the stranger mouse across subjects. NIH Swiss stranger mice were similar in mass and appearance to the dummy PVC mice, and were housed separately from the experimental subjects (C57 and BTBR mice) in the colony facility. The first time the experimental subjects ever encountered the stranger mice was when they entered the compartment where they were contained. During this session, mice were weighed, administered the same injection as the day before, and returned to their home cage for a 30 min pretreatment period. Mice were then introduced into the T-junction and allowed to explore both preference compartments for 15 minutes. Sociability tests always occurred on Wednesdays or Thursdays to prevent any weekend testing.

[4] = test system: C57 and BTBR mice; test: Radiotelemetry of home cage locomotor activity; assay type: in vivo, mouse; conditions: for locomotor stimulant effects: IP, C57 and BTBR mice
Procedure: as §1, §2
At least 7 days after surgical implantation of radiotelemetry probes, mice in their individual home cages were placed atop a telemetry energizer/receiver, which powers probes and transmits their data to an interfaced computer. […]

Chain of DAT (Q01959 whole entry, species assumed): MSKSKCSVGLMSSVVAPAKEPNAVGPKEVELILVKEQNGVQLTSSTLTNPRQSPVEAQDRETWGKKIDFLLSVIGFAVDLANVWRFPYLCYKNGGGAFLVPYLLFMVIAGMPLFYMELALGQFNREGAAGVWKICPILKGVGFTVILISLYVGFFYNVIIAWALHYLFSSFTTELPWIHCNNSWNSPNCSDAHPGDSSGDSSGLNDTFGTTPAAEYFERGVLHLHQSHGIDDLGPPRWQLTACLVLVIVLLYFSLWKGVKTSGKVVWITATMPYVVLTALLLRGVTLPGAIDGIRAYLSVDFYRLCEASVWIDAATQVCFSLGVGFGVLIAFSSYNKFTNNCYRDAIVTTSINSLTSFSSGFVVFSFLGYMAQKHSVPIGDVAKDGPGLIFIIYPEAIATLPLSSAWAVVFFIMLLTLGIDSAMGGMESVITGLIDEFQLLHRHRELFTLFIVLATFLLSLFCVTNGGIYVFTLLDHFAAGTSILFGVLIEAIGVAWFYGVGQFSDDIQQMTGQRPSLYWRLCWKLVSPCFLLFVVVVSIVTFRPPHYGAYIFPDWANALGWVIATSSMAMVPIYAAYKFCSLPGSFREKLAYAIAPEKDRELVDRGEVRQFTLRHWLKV

## c1cc2c(cc1C[C@H]1CCCN1)OCO2 [(R)-I, (R)-2-[(2H-1,3-benzodioxol-5-yl)methyl]pyrrolidine]
[1]
  DAT/SERT (calculated): 0.022
[2]; either mouse strain
  core body temperature change: did not elicit a rise or drop in core body temperature
[2]; C57 and BTBR mice
  effect on core temperature: hypothermic effect
[2]; IP
  core temperature response, comparison of strains: more acute response in C57 mice
[2]; IP, any of the doses tested, C57 and BTBR mice
  rise in core body temperature: did not result in a rise in core body temperature
[2]; IP, both strains
  dose at which hypothermic effects are noted: ≥ 10 mg/kg
[2]; IP, both strains, greater in C57 at 10, 18, 30 and 56 mg/kg
  hypothermic effects after injection: dose-dependent hypothermic effects
[3]; BTBR mice
  sociability (time spent with stranger mouse): minor increase in the sociability response
[3]; C57 mice
  sociability (time spent with stranger mouse): no impact
[4]; 56 mg/kg i.p., BTBR mice, significantly different from saline
  locomotor effect: locomotor effect stronger than C57 mice at the same dose
[4]; doses as high as 30 mg/kg
  locomotor stimulant effects: did not have significant locomotor stimulant effects

## c1cc2c(cc1C[C@@H]1CCCN1)OCO2 [(S)-I, (S)-2-[(2H-1,3-benzodioxol-5-yl)methyl]pyrrolidine]
[1]
  DAT/SERT (calculated): 0.043
[2]; C57 mice
  core body temperature change: significant drop in temperature
[2]; C57 and BTBR mice
  effect on core temperature: hypothermic effect
[2]; IP
  core temperature response, comparison of strains: more acute response in C57 mice
[3]; BTBR mice
  sociability (time spent with stranger mouse): strong response in sociability
[3]; C57 mice
  sociability (time spent with stranger mouse): slight increase in time spent with the stranger mouse
[4]; any dose tested
  locomotor stimulant effects: neither strain exhibited locomotor stimulant effects
